Source: patent publication US9662327B2 (AGIOS PHARMACEUTICALS, INC, priority 2011, dated 2017)

Target: IDH1 R132H (Homo sapiens (Human), UniProt O75874, R132H)
Experiment: Assays for IDH1 R132H Inhibitors (NADPH/aKG, resazurin detection)
Format: biochemical
Details: IDH1 R132H enzyme, Table 2; read-out: IDHR132H Activity
Protocol: Assays were conducted in a volume of […] assay buffer (150 mM NaCl, 10 mM MgCl2, 20 mM Tris pH 7.5, 0.03% bovine serum albumin) as follows in a standard 384-well plate: To 25 ul of substrate mix (8 uM NADPH, 2 mM aKG), 1 μl of test compound was added in DMSO. […] The reaction was incubated for 50 minutes at room temperature, then 25 μl of detection mix (30 μM resazurin, […]) was added and the mixture further incubated for 5 minutes at room temperature.

Chain of IDH1 R132H (O75874 whole entry R132H): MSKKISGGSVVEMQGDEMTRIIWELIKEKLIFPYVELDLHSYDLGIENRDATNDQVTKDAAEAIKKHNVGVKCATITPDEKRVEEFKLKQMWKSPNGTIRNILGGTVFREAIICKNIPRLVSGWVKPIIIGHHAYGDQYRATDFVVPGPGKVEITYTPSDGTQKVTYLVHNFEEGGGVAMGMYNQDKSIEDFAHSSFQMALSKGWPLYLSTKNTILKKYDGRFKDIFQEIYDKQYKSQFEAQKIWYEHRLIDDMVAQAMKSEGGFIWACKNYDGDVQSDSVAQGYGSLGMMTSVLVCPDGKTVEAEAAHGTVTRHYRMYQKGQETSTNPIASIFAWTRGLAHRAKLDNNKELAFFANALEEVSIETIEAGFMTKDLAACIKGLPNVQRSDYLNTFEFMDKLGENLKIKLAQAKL

Row | IC50 [nM] | SMILES
1 | 1000 to 10000 | CC1CN(c2nc(C3CCCCC3)c3c(c2C#N)CC(C)(C)OC3)CCN1C(=O)c1ccco1 (stereo not shown) [Compound 168, 8-cyclohexyl-6-(4-(furan-2-carbonyl)-3-methylpiperazin-1-yl)-3,3-dimethyl-3,4-dihydro-1H-pyrano[3,4-c]pyridine-5-carbonitrile]
2 | 1000 to 10000 | CC1CN(c2nc(C3CCCCC3)c3c(c2C#N)CC(C)(C)OC3)CCN1C(=O)c1ccoc1 (stereo not shown) [Compound 169, 8-cyclohexyl-6-(4-(furan-3-carbonyl)-3-methylpiperazin-1-yl)-3,3-dimethyl-3,4-dihydro-1H-pyrano[3,4-c]pyridine-5-carbonitrile]
3 | 1000 to 10000 | CC(C)c1nc(N2CCN(S(=O)(=O)c3cccs3)[C@H](C)C2)c(C#N)c2c1COC(C)(C)C2 [Compound 170, (R)-8-isopropyl-3,3-dimethyl-6-(3-methyl-4-(thiophen-2-ylsulfonyl)piperazin-1-yl)-3,4-dihydro-1H-pyrano[3,4-c]pyridine-5-carbonitrile]
4 | < 500 | CC(C)c1nc(N2CCN(C(=O)c3ccco3)[C@H](C(C)C)C2)c(C#N)c2c1COC(C)(C)C2 [Compound 171, (R)-6-(4-(furan-2-carbonyl)-3-isopropylpiperazin-1-yl)-8-isopropyl-3,3-dimethyl-3,4-dihydro-1H-pyrano[3,4-c]pyridine-5-carbonitrile]
5 | 1000 to 10000 | CCC1CN(c2nc(C(C)C)c3c(c2C#N)CC(C)(C)OC3)CCN1C(=O)c1ccoc1 (stereo not shown) [Compound 172, 6-(3-ethyl-4-(furan-3-carbonyl)piperazin-1-yl)-8-isopropyl-3,3-dimethyl-3,4-dihydro-1H-pyrano[3,4-c]pyridine-5-carbonitrile]
6 | 1000 to 10000 | Cc1ccoc1C(=O)N1CCN(c2nc(C(C)C)c3c(c2C#N)CC(C)(C)OC3)C[C@H]1C [Compound 173, (R)-8-isopropyl-3,3-dimethyl-6-(3-methyl-4-(3-methylfuran-2-carbonyl)piperazin-1-yl)-3,4-dihydro-1H-pyrano[3,4-c]pyridine-5-carbonitrile]
7 | 1000 to 10000 | CCC1CN(c2nc(C3CCCCC3)c3c(c2C#N)CCOC3)CCN1C(=O)c1ccco1 (stereo not shown) [Compound 174, 8-cyclohexyl-6-(3-ethyl-4-(furan-2-carbonyl)piperazin-1-yl)-3,4-dihydro-1H-pyrano[3,4-c]pyridine-5-carbonitrile]
8 | 1000 to 10000 | CCC1CN(c2nc(C3CCCCC3)c3c(c2C#N)CCOC3)CCN1C(=O)c1ccoc1 (stereo not shown) [Compound 175, 8-cyclohexyl-6-(3-ethyl-4-(furan-3-carbonyl)piperazin-1-yl)-3,4-dihydro-1H-pyrano[3,4-c]pyridine-5-carbonitrile]
9 | < 500 | Cc1occc1C(=O)N1CCN(c2nc(C(C)C)c3c(c2C#N)CC(C)(C)OC3)C[C@H]1C(C)C [Compound 176, (R)-8-isopropyl-6-(3-isopropyl-4-(2-methylfuran-3-carbonyl)piperazin-1-yl)-3,3-dimethyl-3,4-dihydro-1H-pyrano[3,4-c]pyridine-5-carbonitrile]
10 | 1000 to 10000 | Cc1occc1C(=O)N1CCN(c2nc(C(C)C)c3c(c2C#N)CCOC3)C(c2ccccc2)C1 (stereo not shown) [Compound 177, 8-isopropyl-6-(4-(2-methylfuran-3-carbonyl)-2-phenylpiperazin-1-yl)-3,4-dihydro-1H-pyrano[3,4-c]pyridine-5-carbonitrile]
11 | 1000 to 10000 | CC(C)c1nc(N2CCN(C(=O)c3ccoc3)CC2c2ccccc2)c(C#N)c2c1COC(C)(C)C2 (stereo not shown) [Compound 178, 6-(4-(furan-3-carbonyl)-2-phenylpiperazin-1-yl)-8-isopropyl-3,3-dimethyl-3,4-dihydro-1H-pyrano[3,4-c]pyridine-5-carbonitrile]
12 | 1000 to 10000 | Cc1occc1C(=O)N1CCN(c2nc(C(C)C)c3c(c2C#N)CC(C)(C)OC3)C(c2ccccc2)C1 (stereo not shown) [Compound 179, 8-isopropyl-3,3-dimethyl-6-(4-(2-methylfuran-3-carbonyl)-2-phenylpiperazin-1-yl)-3,4-dihydro-1H-pyrano[3,4-c]pyridine-5-carbonitrile]
13 | < 500 | CC(C)[C@@H]1CN(c2nc(C3CC3)c3c(c2C#N)CC(C)(C)OC3)CCN1C(=O)c1ccoc1 [Compound 180, (R)-8-cyclopropyl-6-(4-(furan-3-carbonyl)-3-isopropylpiperazin-1-yl)-3,3-dimethyl-3,4-dihydro-1H-pyrano[3,4-c]pyridine-5-carbonitrile]
14 | < 500 | Cc1occc1C(=O)N1CCN(c2nc(C3CC3)c3c(c2C#N)CC(C)(C)OC3)C[C@H]1C(C)C [Compound 181]
15 | 1000 to 10000 | CC(C)[C@@H]1CN(c2nc(C3CCCCC3)c3c(c2C#N)CCOC3)CCN1C(=O)c1ccco1 [Compound 182, (R)-8-cyclohexyl-6-(4-(furan-2-carbonyl)-3-isopropylpiperazin-1-yl)-3,4-dihydro-1H-pyrano[3,4-c]pyridine-5-carbonitrile]
16 | 1000 to 10000 | CC(C)[C@@H]1CN(c2nc(C3CCCCC3)c3c(c2C#N)CCOC3)CCN1C(=O)c1ccoc1 [Compound 183, (R)-8-cyclohexyl-6-(4-(furan-3-carbonyl)-3-isopropylpiperazin-1-yl)-3,4-dihydro-1H-pyrano[3,4-c]pyridine-5-carbonitrile]

Row | IC50 [nM] | SMILES
17 | 1000 to 10000 | Cc1occc1C(=O)N1CCN(c2nc(C3CCCCC3)c3c(c2C#N)CCOC3)C[C@H]1C [Compound 184, (R)-8-cyclohexyl-6-(3-methyl-4-(2-methylfuran-3-carbonyl)piperazin-1-yl)-3,4-dihydro-1H-pyrano[3,4-c]pyridine-5-carbonitrile]
18 | 1000 to 10000 | C[C@@H]1CN(c2nc(C3CCCCC3)c3c(c2C#N)CCOC3)CCN1C(=O)Cc1cccs1 [Compound 185, (R)-8-cyclohexyl-6-(3-methyl-4-(2-(thiophen-2-yl)acetyl)piperazin-1-yl)-3,4-dihydro-1H-pyrano[3,4-c]pyridine-5-carbonitrile]
19 | 1000 to 10000 | Cc1ccoc1C(=O)N1CCN(c2nc(C3CCCCC3)c3c(c2C#N)CCOC3)C[C@H]1C [Compound 186, (R)-8-cyclohexyl-6-(3-methyl-4-(3-methylfuran-2-carbonyl)piperazin-1-yl)-3,4-dihydro-1H-pyrano[3,4-c]pyridine-5-carbonitrile]
20 | 500 to 1000 | Cc1oncc1C(=O)N1CCN(c2nc(C3CCCCC3)c3c(c2C#N)CCOC3)C[C@H]1C [Compound 187, (R)-8-cyclohexyl-6-(3-methyl-4-(5-methylisoxazole-4-carbonyl)piperazin-1-yl)-3,4-dihydro-1H-pyrano[3,4-c]pyridine-5-carbonitrile]
21 | 1000 to 10000 | C[C@@H]1CN(c2nc(C3CCCCC3)c3c(c2C#N)CCOC3)CCN1C(=O)Cc1ccccc1F [Compound 188, (R)-8-cyclohexyl-6-(4-(2-(2-fluorophenyl)acetyl)-3-methylpiperazin-1-yl)-3,4-dihydro-1H-pyrano[3,4-c]pyridine-5-carbonitrile]
22 | 1000 to 10000 | COc1cccc(CC(=O)N2CCN(c3nc(C4CCCCC4)c4c(c3C#N)CCOC4)C[C@H]2C)c1 [Compound 189, (R)-8-cyclohexyl-6-(4-(2-(3-methoxyphenyl)acetyl)-3-methylpiperazin-1-yl)-3,4-dihydro-1H-pyrano[3,4-c]pyridine-5-carbonitrile]
23 | 1000 to 10000 | Cc1nc2ccccn2c1C(=O)N1CCN(c2nc(C3CCCCC3)c3c(c2C#N)CCOC3)C[C@H]1C [Compound 190, (R)-8-cyclohexyl-6-(3-methyl-4-(2-methylimidazo[1,2-a]pyridine-3-carbonyl)piperazin-1-yl)-3,4-dihydro-1H-pyrano[3,4-c]pyridine-5-carbonitrile]
24 | 1000 to 10000 | C[C@@H]1CN(c2nc(C3CCCCC3)c3c(c2C#N)CCOC3)CCN1C(=O)Cc1cccc(F)c1 [Compound 191, (R)-8-cyclohexyl-6-(4-(2-(3-fluorophenyl)acetyl)-3-methylpiperazin-1-yl)-3,4-dihydro-1H-pyrano[3,4-c]pyridine-5-carbonitrile]
25 | 1000 to 10000 | Cc1ccoc1C(=O)N1CCN(c2nc(C3CC3)c3c(c2C#N)CC(C)(C)OC3)C[C@H]1C(C)C [Compound 193]
26 | < 500 | CC(C)[C@@H]1CN(c2nc(C3CC3)c3c(c2C#N)CC(C)(C)OC3)CCN1C(=O)Cc1cccs1 [Compound 194]
27 | < 500 | CC(C)c1nc(N2CCN(C(=O)Cc3cccs3)[C@H](C(C)C)C2)c(C#N)c2c1COC(C)(C)C2 [Compound 195, (R)-8-isopropyl-6-(3-isopropyl-4-(2-(thiophen-2-yl)acetyl)piperazin-1-yl)-3,3-dimethyl-3,4-dihydro-1H-pyrano[3,4-c]pyridine-5-carbonitrile]
28 | 1000 to 10000 | Cc1cc(C(=O)N2CCN(c3nc(C(C)C)c4c(c3C#N)CC(C)(C)OC4)C[C@H]2C)c(C)o1 [Compound 196, (R)-6-(4-(2,5-dimethylfuran-3-carbonyl)-3-methylpiperazin-1-yl)-8-isopropyl-3,3-dimethyl-3,4-dihydro-1H-pyrano[3,4-c]pyridine-5-carbonitrile]
29 | 1000 to 10000 | Cc1ncoc1C(=O)N1CCN(c2nc(C(C)C)c3c(c2C#N)CC(C)(C)OC3)C[C@H]1C [Compound 197, (R)-8-isopropyl-3,3-dimethyl-6-(3-methyl-4-(4-methyloxazole-5-carbonyl)piperazin-1-yl)-3,4-dihydro-1H-pyrano[3,4-c]pyridine-5-carbonitrile]
30 | 1000 to 10000 | CC(C)c1nc(N2CCN(C(=O)c3cocn3)[C@H](C)C2)c(C#N)c2c1COC(C)(C)C2 [Compound 198, (R)-8-isopropyl-3,3-dimethyl-6-(3-methyl-4-(oxazole-4-carbonyl)piperazin-1-yl)-3,4-dihydro-1H-pyrano[3,4-c]pyridine-5-carbonitrile]
31 | 1000 to 10000 | COc1ccccc1CC(=O)N1CCN(c2nc(C(C)C)c3c(c2C#N)CC(C)(C)OC3)C[C@H]1C [Compound 199, (R)-8-isopropyl-6-(4-(2-(2-methoxyphenyl)acetyl)-3-methylpiperazin-1-yl)-3,3-dimethyl-3,4-dihydro-1H-pyrano[3,4-c]pyridine-5-carbonitrile]
